According to the NIST ThermoML archive (doi:10.1021/je300993n):
Numbers after ± are expanded uncertainties.

Experiments:
[1] = refractive index (Na D-line) (dimensionless); wn = mass fraction of the nth substance listed; details: 293.15 K, 101 kPa, Liquid, Standard Abbe refractometry
[2] = for mass density: 293.15 K, 101.33 kPa, gas displacement; for Normal melting temperature / Triple point temperature: DTA
[3] = refractive index (Na D-line) (dimensionless); details: 293.15 K; 101.33 kPa; Liquid; Standard Abbe refractometry

Compound	refractive index ([1]; w2 = 0)	refractive index ([1]; w1 = 0.1)	refractive index ([1]; w1 = 0.2)	refractive index ([1]; w1 = 0.3)	refractive index ([1]; w1 = 0.4)	also measured
O=S(=O)(O)C(F)(F)F [methanesulfonic acid, trifluoro-] + CCCCCCCC[N+](CC)(CC)CC.F[B-](F)(F)F	1.3292 ± 0.005	–	–	–	–	–
CCCC[N+](CC)(CC)CC.F[P-](F)(F)(F)(F)F [N,N,N-triethyl-N-butylammonium hexafluorophosphate] + O=S(=O)(O)C(F)(F)F	–	1.3405 ± 0.0052	1.3522 ± 0.0052	1.3632 ± 0.0051	1.3745 ± 0.0051	refractive index ([1]; w1 = 0.5): 1.3786 ± 0.005; refractive index ([1]; w1 = 0.6): 1.3782 ± 0.005
CCCC[N+](CC)(CC)CC.F[P-](F)(F)(F)(F)F [N,N,N-triethyl-N-butylammonium hexafluorophosphate]	–	–	–	–	–	mass density ([2]; Crystal): 1366 ± 16 kg/m3; Normal melting temperature ([2]; Crystal 1): 178.90 ± 0.5 °C
O=S(=O)(O)C(F)(F)F [methanesulfonic acid, trifluoro-]	–	–	–	–	–	refractive index [3]: 1.3292 ± 0.005
CC[N+](CC)(CC)CC.F[P-](F)(F)(F)(F)F [tetraethylammonium hexafluorophosphate]	–	–	–	–	–	mass density ([2]; Crystal): 1440 ± 16 kg/m3; Normal melting temperature ([2]; Crystal): 77.10 ± 0.5 °C
O=S(=O)(O)C(F)(F)F [methanesulfonic acid, trifluoro-] + CC[N+](CC)(CC)CC.F[P-](F)(F)(F)(F)F	1.3292 ± 0.005	–	–	–	–	–
O=S(=O)(O)C(F)(F)F [methanesulfonic acid, trifluoro-] + CCCCCC[N+](CC)(CC)CC.F[P-](F)(F)(F)(F)F	1.3292 ± 0.005	–	–	–	–	–
O=S(=O)(O)C(F)(F)F [methanesulfonic acid, trifluoro-] + CCCC[N+](CC)(CC)CC.F[P-](F)(F)(F)(F)F	1.3292 ± 0.005	–	–	–	–	–
CC[N+](CC)(CC)CC.[F][Sb-]([F])([F])([F])([F])[F] [tetraethylammonium hexafluoroantimonate] + O=S(=O)(O)C(F)(F)F	–	1.3349 ± 0.0051	1.3408 ± 0.0051	1.3498 ± 0.0051	1.3571 ± 0.0051	refractive index ([1]; w1 = 0.5): 1.3641 ± 0.0051; refractive index ([1]; w1 = 0.6): 1.3678 ± 0.005
CCCCCCCC[N+](CC)(CC)CC.F[P-](F)(F)(F)(F)F [N,N,N-triethyl-N-octylammonium hexafluorophosphate] + O=S(=O)(O)C(F)(F)F	–	1.3427 ± 0.0052	1.3562 ± 0.0052	1.3681 ± 0.0051	1.3781 ± 0.0051	refractive index ([1]; w1 = 0.5): 1.3875 ± 0.0051
O=S(=O)(O)C(F)(F)F [methanesulfonic acid, trifluoro-] + CCCCCC[N+](CC)(CC)CC.[F][Sb-]([F])([F])([F])([F])[F]	1.3292 ± 0.005	–	–	–	–	–
CCCC[N+](CC)(CC)CC.F[B-](F)(F)F [N,N,N-triethyl-N-butylammonium tetrafluoroborate] + O=S(=O)(O)C(F)(F)F	–	1.3451 ± 0.0052	1.3543 ± 0.0051	1.3636 ± 0.0051	1.3698 ± 0.0051	refractive index ([1]; w1 = 0.5): 1.3771 ± 0.0051; refractive index ([1]; w1 = 0.6): 1.3857 ± 0.0051
CC[N+](CC)(CC)CC.[F][Sb-]([F])([F])([F])([F])[F] [tetraethylammonium hexafluoroantimonate]	–	–	–	–	–	mass density ([2]; Liquid): 1715 ± 16 kg/m3
O=S(=O)(O)C(F)(F)F [methanesulfonic acid, trifluoro-] + CCCCCC[N+](CC)(CC)CC.F[B-](F)(F)F	1.3292 ± 0.005	–	–	–	–	–
CC[N+](CC)(CC)CC.F[P-](F)(F)(F)(F)F [tetraethylammonium hexafluorophosphate] + O=S(=O)(O)C(F)(F)F	–	1.3398 ± 0.0051	1.3499 ± 0.0051	1.3602 ± 0.0051	1.3691 ± 0.0051	–
CCCCCCCC[N+](CC)(CC)CC.F[B-](F)(F)F [N,N,N-triethyl-N-octylammonium tetrafluoroborate] + O=S(=O)(O)C(F)(F)F	–	1.3493 ± 0.0052	1.3583 ± 0.0051	1.3672 ± 0.0051	1.3745 ± 0.0051	refractive index ([1]; w1 = 0.5): 1.3811 ± 0.0051

Compound	refractive index ([1]; w2 = 0)	refractive index ([1]; w1 = 0.1)	refractive index ([1]; w1 = 0.2)	refractive index ([1]; w1 = 0.3)	refractive index ([1]; w1 = 0.4)	also measured
CCCCCC[N+](CC)(CC)CC.[F][Sb-]([F])([F])([F])([F])[F] [N,N,N-triethyl-N-hexylammonium hexafluoroantimonate] + O=S(=O)(O)C(F)(F)F	–	1.3381 ± 0.0051	1.3462 ± 0.0051	1.3563 ± 0.0051	1.3628 ± 0.0051	refractive index ([1]; w1 = 0.5): 1.3722 ± 0.0051; refractive index ([1]; w1 = 0.6): 1.3809 ± 0.0051
CCCC[N+](CC)(CC)CC.F[B-](F)(F)F [N,N,N-triethyl-N-butylammonium tetrafluoroborate]	–	–	–	–	–	mass density ([2]; Crystal 2): 1140 ± 16 kg/m3; Normal melting temperature ([2]; Crystal 1): 161.90 ± 0.5 °C; Triple point temperature ([2]; Crystal 2): 305.85 ± 0.5 K
CC[N+](CC)(CC)CC.F[B-](F)(F)F [tetraethylammonium tetrafluoroborate]	–	–	–	–	–	mass density ([2]; Crystal): 1220 ± 16 kg/m3; Normal melting temperature ([2]; Crystal): 71.40 ± 0.5 °C
O=S(=O)(O)C(F)(F)F [methanesulfonic acid, trifluoro-] + CC[N+](CC)(CC)CC.[F][Sb-]([F])([F])([F])([F])[F]	1.3292 ± 0.005	–	–	–	–	–
CCCCCCCC[N+](CC)(CC)CC.F[B-](F)(F)F [N,N,N-triethyl-N-octylammonium tetrafluoroborate]	–	–	–	–	–	mass density ([2]; Crystal): 1065 ± 16 kg/m3; Normal melting temperature ([2]; Crystal): 101.40 ± 0.5 °C
O=S(=O)(O)C(F)(F)F [methanesulfonic acid, trifluoro-] + CC[N+](CC)(CC)CC.F[B-](F)(F)F	1.3292 ± 0.005	–	–	–	–	–
CC[N+](CC)(CC)CC.F[B-](F)(F)F [tetraethylammonium tetrafluoroborate] + O=S(=O)(O)C(F)(F)F	–	1.3421 ± 0.0051	1.3512 ± 0.0051	1.3601 ± 0.0051	1.3656 ± 0.0051	refractive index ([1]; w1 = 0.5): 1.3732 ± 0.0051
CCCCCC[N+](CC)(CC)CC.F[B-](F)(F)F [N,N,N-triethyl-N-hexylammonium tetrafluoroborate] + O=S(=O)(O)C(F)(F)F	–	1.3475 ± 0.0052	1.3572 ± 0.0051	1.3654 ± 0.0051	1.3728 ± 0.0051	refractive index ([1]; w1 = 0.5): 1.3782 ± 0.0051
CCCCCC[N+](CC)(CC)CC.[F][Sb-]([F])([F])([F])([F])[F] [N,N,N-triethyl-N-hexylammonium hexafluoroantimonate]	–	–	–	–	–	mass density ([2]; Crystal): 1488 ± 16 kg/m3; Normal melting temperature ([2]; Crystal): 174.00 ± 0.5 °C
O=S(=O)(O)C(F)(F)F [methanesulfonic acid, trifluoro-] + CCCC[N+](CC)(CC)CC.F[B-](F)(F)F	1.3292 ± 0.005	–	–	–	–	–
CCCCCCCC[N+](CC)(CC)CC.F[P-](F)(F)(F)(F)F [N,N,N-triethyl-N-octylammonium hexafluorophosphate]	–	–	–	–	–	mass density ([2]; Crystal 2): 1190 ± 16 kg/m3; Normal melting temperature ([2]; Crystal 1): 88.30 ± 0.5 °C; Triple point temperature ([2]; Crystal 2): 311.65 ± 0.5 K
O=S(=O)(O)C(F)(F)F [methanesulfonic acid, trifluoro-] + CCCCCCCC[N+](CC)(CC)CC.F[P-](F)(F)(F)(F)F	1.3292 ± 0.005	–	–	–	–	–
CCCCCC[N+](CC)(CC)CC.F[B-](F)(F)F [N,N,N-triethyl-N-hexylammonium tetrafluoroborate]	–	–	–	–	–	mass density ([2]; Crystal): 1094 ± 16 kg/m3; Normal melting temperature ([2]; Crystal): 88.20 ± 0.5 °C
CCCCCC[N+](CC)(CC)CC.F[P-](F)(F)(F)(F)F [N,N,N-triethyl-N-hexylammonium hexafluorophosphate] + O=S(=O)(O)C(F)(F)F	–	1.3421 ± 0.0052	1.3549 ± 0.0052	1.3667 ± 0.0051	1.3762 ± 0.0051	–
CCCCCC[N+](CC)(CC)CC.F[P-](F)(F)(F)(F)F [N,N,N-triethyl-N-hexylammonium hexafluorophosphate]	–	–	–	–	–	mass density ([2]; Crystal): 1351 ± 16 kg/m3; Normal melting temperature ([2]; Crystal): 161.60 ± 0.5 °C
